Assay results reported in patent publication US8192962B2, “Processes for detecting toxic substances” (Daikin Industries, Ltd., priority 2001, dated 2012).

System: Genes belonging to other category
Test: DNA chip mRNA expression in yeast, genes belonging to other category (Table 9)
Type: cell-based, Saccharomyces cerevisiae S288C
Procedure: Yeast (Saccharomyces cerevisiae S288C (α SUC2mal mel gap2 CUP1)) were incubated at 25° C. on YPD medium (yeast extract 1%, polypepton 2%, glucose 2%). One of toxic chemical substances was added to the cells at logarithmic growth phase, and the cells were further incubated for two hours. Cells were cultured without any chemical substance in the same condition, and were used as control. Concentrations of the chemical substances were defined to inhibit the growth of the yeast but not lead to death.
After completion of the incubation, the culture was centrifuged to collect the cells. To the cells, sodium acetate buffer (50 mM sodium acetate, 10 mM EDTA, 1% SDS) was added, and the mixture was shaken at 65° C. for five minutes, followed by returning to room temperature, and obtaining the supernatant, of which the procedures were repeated two times. To the supernatant, ½ amount of a solution of phenol/chloroform was added, and the mixture was centrifuged to give a supernatant, which was added with an equal amount of chloroform, and the mixture was centrifuged to give a supernatant. To the supernatant, an equal amount of isopropanol containing 0.3 M sodium acetate was added, and the mixture was allowed to stand at room temperature for 30 minutes, after which the mixture was centrifuged to give a sediment of the whole RNAs. Seventy % ethanol was added to the sediment, and the mixture was again centrifuged to give a sediment, which was then dried and dissolved in water. mRNA was isolated from the whole RNAs as followings. In view of the fact that a poly A chain is attached to the 3′ terminus of mRNA, a polynucleotide having a poly T structure which was immobilized on the surface of latex beads was used to trap the mRNA, and then the mRNA was washed and eluted with spine column (Oligotex-dT30<Super>mRNA Purification Kit, Takara). Reverse transcription of the mRNA was conducted with a reverse transcriptase (Super Script II Reverse Transcriptase; catalogue No. 18064-014, GibcoBRL) using fluorescence-labeled nucleotides to give cDNAs that were introduced with Cy3-dUTP or Cy5-dUTP during the reverse transcription.
The labeled cDNAs were dissolved in TE buffer (10mM Tris-HCl/1 mM EDTA, pH8.0), and the solution was dropped on the DNA chip containing the whole genes of yeast (DNA Chip Research Inc. Japan) so that the cDNAs were hybridized on the DNA chip at 65° C. for over 12 hours. The fluoresces intensity of the DNA chip was read with a scanner, and the ratio relative to the fluorescence intensity resulting from the absence of chemical substance was estimated as the following, which is shown in Tables 1 to 9: […]

Measured: The level of expressed mRNA in the presence of chemical substance/The level of expressed mRNA in the absence of chemical substance

Cl[C@H]1[C@H](Cl)[C@@H](Cl)[C@@H](Cl)[C@H](Cl)[C@H]1Cl [(7), γ-hexachlorocyclohexane]
0.9: yeast gene YDR084C | yeast gene YHR142W | yeast gene YPL089C
2.9: yeast gene YNL333W
0.6: yeast gene YGR189C
2.0: yeast gene YDL008W | yeast gene YFL028C | yeast gene YKL039W | yeast gene YOR288C
1.4: yeast gene YBL005W-A | yeast gene YCR004C | yeast gene YCR071C | yeast gene YDL238C | yeast gene YDR315C | yeast gene YKL008C | yeast gene YNL093W | yeast gene YNR069C | yeast gene YOR132W
1.2: yeast gene YCR088W | yeast gene YMR004W | yeast gene YNL007C | yeast gene YOR157C | yeast gene YPL149W
2.8: yeast gene YDR259C | yeast gene YDR358W
1.6: yeast gene YBL041W | yeast gene YDR115W | yeast gene YDR510W | yeast gene YNL006W | yeast gene YOR198C | yeast gene YPR103W | yeast gene YPR108W
3.1: yeast gene YBL078C
0.2: yeast gene YKL096W
1.8: yeast gene YEL066W | yeast gene YFL043C | yeast gene YKL013C | yeast gene YMR226C | yeast gene YOR036W | yeast gene YPL109C
4.1: yeast gene YDR085C
1.1: yeast gene YBR214W | yeast gene YDR388W | yeast gene YJL089W | yeast gene YLR356W | yeast gene YMR276W | yeast gene YMR314W | yeast gene YOR124C | yeast gene YOR355W
2.1: yeast gene YKL165C | yeast gene YKL193C
2.4: yeast gene YGR257C
0.7: yeast gene YDR481C | yeast gene YLR391W | yeast gene YOR181W
1.0: yeast gene YCL027W | yeast gene YDR104C | yeast gene YER107C | yeast gene YHR071W | yeast gene YKL041W
3.3: yeast gene YLR178C | yeast gene YOR117W
0.5: yeast gene YDR432W | yeast gene YEL042W | yeast gene YIL123W | yeast gene YIL140W
0.4: yeast gene YJR004C
2.6: yeast gene YKL139W
2.2: yeast gene YGL229C | yeast gene YOL164W
1.3: yeast gene YER039C | yeast gene YGL158W | yeast gene YLR429W | yeast gene YOR185C | yeast gene YOR259C
8.0: yeast gene YOR383C
1.9: yeast gene YAR010C | yeast gene YLR250W | yeast gene YLR362W | yeast gene YOR261C
0.8: yeast gene YJL116C | yeast gene YMR094W | yeast gene YMR275C
3.9: yeast gene YLR136C
5.7: yeast gene YLR327C
1.7: yeast gene YJR086W | yeast gene YOL013C
0.3: yeast gene YFL022C
7.0: yeast gene YGR213C
1.5: yeast gene YBL043W | yeast gene YCL020W | yeast gene YDR055W | yeast gene YER130C | yeast gene YGR136W | yeast gene YHR004C | yeast gene YHR139C | yeast gene YLR120C | yeast gene YMR104C | yeast gene YNR010W | yeast gene YPL154C
